Data from patent US20170052170A1, “NOVEL CELL LINES AND METHODS” (priority 2009, published 2017).

Tests used:
Type in all cases: cell-based
[1] = target: T1, human odorant receptor OR1D2 (Homo sapiens, UniProt P34982); assay: calcium flux assay in cell line expressing human odorant receptor OR1D2; details: final concentration 0.3 mM
T1 construct: expressed in transfected cells; host or cells: 293T (HEK293T)
T1 sequence (P34982 1-312): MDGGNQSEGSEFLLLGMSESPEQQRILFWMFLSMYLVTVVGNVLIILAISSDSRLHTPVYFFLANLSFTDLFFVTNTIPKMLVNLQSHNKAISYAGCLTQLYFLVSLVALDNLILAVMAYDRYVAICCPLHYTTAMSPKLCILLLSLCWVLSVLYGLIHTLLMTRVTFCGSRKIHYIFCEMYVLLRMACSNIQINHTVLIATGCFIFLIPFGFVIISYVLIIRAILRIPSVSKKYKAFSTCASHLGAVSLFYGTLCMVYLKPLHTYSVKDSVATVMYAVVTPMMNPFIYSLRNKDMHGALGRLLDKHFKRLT
Description: (§1) FIG. 29B depicts representative traces of the functional cell-based response of a cell line described herein expressing human odorant receptor OR1D2 to Bourgeonal (to a final concentration of 0.3 mM) compared to DMSO vehicle background signal as control. Test (black) and control (gray) traces are overlaid. […] The cell-based assay was designed to report calcium flux using a fluorescent calcium signaling dye. Fluorescent assay response is plotted along the Y-axis and time is indicated along the X-axis. Arrows indicate the timepoint at which Bourgeonal or DMSO was added.

[2] = target: T1, human odorant receptor OR1D2; assay: Calcium mobilization (Fluo-4) assay, HEK293T cells expressing OR1D2 and human Gα15; details: final concentration 0.3 mM, vs DMSO vehicle, FIG. 29B
Description: (§2) Populations of cells were tested using functional criteria. Calcium mobilization dye Fluo-4 (Invitrogen) was used according to manufacturer's instructions. HEK293T cell lines stably expressing h-OR were maintained under standard cell culture conditions in DMEM medium supplemented with 10% fetal bovine serum and glutamine. On the day before assay, the cells were harvested from stock plates and plated into black clear-bottom 384 well assay plates. The assay plates were maintained in a 37° C. cell culture incubator under 5% CO2 for 22-48 hours. […] The assay plates were then loaded on a fluorescent plate reader (Hamamatsu FDSS) and agonist (4.5 mM Helional for OR3A1 and 0.3 mM Bourgeonal for OR1D2-FIGS. 29A, 29B) dissolved in the above buffer (130 mM NaCl, 5 mM KCl, 2 mM CaCl2, 1.2 mM MgCl2, 10 mM HEPES, 10 mM glucose, pH 7.0) was added. Cells were tested at multiple different densities in 384-well plates and responses were analyzed. […]
(§3) In order to identify and measure the ligand-induced responsiveness of odorant receptor-expressing HEK293T cells, receptor activation are monitored by measuring receptor-triggered alterations in intracellular calcium levels. […] Software (Hamamatsu FDSS) analysis of images reports the change in relative fluorescence for each well in the cell plate.

[3] = target: T2, human odorant receptor OR3A1 (Homo sapiens, UniProt P47881, R125Q); assay: calcium flux assay in cell line expressing human odorant receptor OR3A1; details: final concentration 4.5 mM
T2 construct: expressed in transfected cells; host or cells: 293T (HEK293T)
T2 sequence (P47881 1-315 R125Q): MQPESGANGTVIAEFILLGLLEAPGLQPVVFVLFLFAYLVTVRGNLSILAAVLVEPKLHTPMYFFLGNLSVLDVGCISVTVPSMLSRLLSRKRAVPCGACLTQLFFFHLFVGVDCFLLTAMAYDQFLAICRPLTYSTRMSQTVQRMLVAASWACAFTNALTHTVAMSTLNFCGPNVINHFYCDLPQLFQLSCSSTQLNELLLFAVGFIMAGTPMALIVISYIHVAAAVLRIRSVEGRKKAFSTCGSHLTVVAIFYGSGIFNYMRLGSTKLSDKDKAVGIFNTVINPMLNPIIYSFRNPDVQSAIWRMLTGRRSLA
Description: as §1, with “29 (A-B) depicts representative traces of the functional cell-based response of cells expressing a human odorant receptor to Helional and to Bourgeonal compared to background. FIG. 29A” for “29B”, “OR3A1” for “OR1D2”, “Helional” for “Bourgeonal”, “4.5” for “0.3”

[4] = target: T2, human odorant receptor OR3A1; assay: Calcium mobilization (Fluo-4) assay, HEK293T cells expressing OR3A1 and human Gα15; details: final concentration 4.5 mM, vs DMSO vehicle, FIG. 29A
Description: as §2, §3

| SMILES | functional cell-based (calcium flux) response compared to DMSO vehicle background [1] | functional cell-based calcium flux response [2] | functional cell-based (calcium flux) response compared to DMSO vehicle background [3] | functional cell-based calcium flux response [4] |
| --- | --- | --- | --- | --- |
| CC(C)(C)c1ccc(CCC=O)cc1 [Bourgeonal] | response to Bourgeonal over background | response to Bourgeonal over background | – | – |
| CC(C=O)Cc1ccc2c(c1)OCO2 (stereo not shown) [Helional] | – | – | response to Helional over background | response to Helional over background |
